Measurements reported in PubChem BioAssay (NCI).
Several values for one entry are separate records, joined by “and”; a condition that tells them apart may be missing. Equal values may be shown once.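 48-hour exposure; five concentrations; linearly interpolated endpoints. GI50 = concentration required for 50% inhibition of growth. TGI: concentration producing complete growth inhibition.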

Tests used:
Assay in all cases: NCI tumour cell line growth inhibition, 48 h
XF 498 CNS = test system: XF 498 CNS
DMS 114 small cell lung = test system: DMS 114 small cell lung
SNB-78 CNS = test system: SNB-78 CNS
M19-MEL melanoma = test system: M19-MEL melanoma
RXF-631 renal = test system: RXF-631 renal
DLD-1 colon = test system: DLD-1 colon
HOP-18 NSCLC = test system: HOP-18 NSCLC
MCF7 breast = test system: MCF7 breast
MDA-N = test system: MDA-N

| Compound | TGI (XF 498 CNS) [µM] | TGI (DMS 114 small cell lung) [µM] | TGI (SNB-78 CNS) [µM] | TGI (M19-MEL melanoma) [µM] | TGI (DLD-1 colon) [µM] | TGI (HOP-18 NSCLC) [µM] | GI50 (MCF7 breast) | TGI (MCF7 breast) [µM] | other results |
| --- | --- | --- | --- | --- | --- | --- | --- | --- | --- |
| Cc1cc(C)c(C(=O)O)c(SSc2cc(C)cc(C)c2C(=O)O)c1 | > 100 | > 100 | > 100 | > 100 | > 100 |  |  |  | TGI (RXF-631 renal): > 100 µM |
| c1ccc(SC23C4C5C6C4C2C6C53)nc1 (configuration not stated) |  | > 100 | > 100 | > 100 | > 100 | > 100 |  |  | TGI (RXF-631 renal): > 100 µM |
| CC(C)=CC(=O)N[C@H]1CC[C@]2(C)C3CC[C@]4(C)C(C(C)N(C)C)=CCC4C3CCC2[C@H]1O (some centres not stated) |  |  |  |  |  |  | 3.06 µM | 13.6 |  |
| O=C(Nc1ccc(F)cc1)Nc1ccc(Br)c(C(F)(F)F)c1 |  |  |  |  |  |  | 2.29 µM | 10.3 |  |
| O=C(c1ccco1)c1c(C(F)(F)F)n([O-])c2cc(C(F)(F)F)ccc2[n+]1=O |  |  |  |  |  |  | 0.445 µM | 1.95 |  |
| CC1(C)OC(=O)C(C#N)=C1C[n+]1ccccc1 |  |  |  |  |  |  |  | > 10 | TGI (MDA-N): > 10 µM |
| CCOC(=O)C1=C(C)N(NC(N)=O)C2(N)N(NC(N)=O)C(C)=C(C(=O)OCC)C12C(=O)OCC (configuration not stated) | > 100 | > 100 |  | > 100 | > 100 |  |  |  |  |
| ClCc1ccccc1Cn1cnc2c(Cl)ncnc21 |  |  |  |  |  |  | 11.1 µM | > 100 |  |
| COc1ccc2oc(-c3ccc(OC)c(OC)c3OC)cc(=O)c2c1 | > 100 | > 100 |  | > 100 | > 100 |  |  |  |  |
| COC1=CC(c2ccc[nH]2)=N/C1=C\c1[nH]c(C)c(CC(=O)OCc2ccccc2)c1C |  |  |  |  |  |  | 0.397 µM | 2.85 |  |
| COc1cc(C(C)c2cc3c(cc2OCCNC(=O)COc2cc4c(cc2C(C)c2cc(OC)c(OC)c(OC)c2)OCO4)OCO3)cc(OC)c1OC (configuration not stated) |  | > 100 |  | > 100 | > 100 |  |  |  | TGI (RXF-631 renal): > 100 µM |
| CCCCc1c2cnccc2c(CCCC)c2c1[nH]c1ccccc12 | 13.3 | 18.3 | 77.8 | 24.9 | > 100 | 24.8 |  |  |  |
| COC(=O)Nc1nc2ccc(C(=O)c3ccccc3)cc2[nH]1 |  |  |  |  |  |  | 0.318 µM and 0.204 µM | > 100 |  |
| O=C1CNC(=O)c2[nH]cnc2N1 | > 100 | > 100 | > 100 | > 100 | > 100 | > 100 |  |  | TGI (RXF-631 renal): > 100 µM |
| C=C1C(=O)O[C@H]2[C@H]1CC/C(COC(=O)CCCc1c[nH]c3ccccc13)=C\CC[C@@]1(C)O[C@@H]21 |  |  |  |  |  |  | 1.42 µM | 3.85 |  |
| Cc1c(N)nc(C(CC(N)=O)NCC(N)C(N)=O)nc1C(=O)NC(C(=O)NC(C)C(O)C(C)C(=O)NC(C(=O)NCCc1nc(-c2nc(C(=O)NCCCNC(C)c3ccccc3)cs2)cs1)C(C)O)C(OC1OC(CO)C(O)C(O)C1OC1OC(CO)C(O)C(OC(N)=O)C1O)c1cnc[nH]1 (configuration not stated) | 50 | 8.75 | > 50 | 50 | 50 | 46.8 |  | > 100 | GI50 (MDA-N): > 100 µM; TGI (MDA-N): > 100 µM |
| CCn1c2c(c3ccccc31)[C@@H](c1ccc(Cl)cc1)CC1C(=O)N(c3ccccc3)C(=O)C21 (some centres not stated) | > 100 | > 100 | > 100 | > 100 | > 100 | > 100 |  |  |  |

| Compound | TGI (XF 498 CNS) [µM] | TGI (DMS 114 small cell lung) [µM] | TGI (SNB-78 CNS) [µM] | TGI (M19-MEL melanoma) [µM] | TGI (DLD-1 colon) [µM] | TGI (HOP-18 NSCLC) [µM] | GI50 (MCF7 breast) | TGI (MCF7 breast) [µM] | other results |
| --- | --- | --- | --- | --- | --- | --- | --- | --- | --- |
| CC(=O)NC(CSC1=C2NC(=O)\C=C/C=C/C=C\C(C)C(O)CC(=O)/C(C)=C\CC(O)/C=C/C(C)C(O)C(C)C=C(C)C(=O)c3c(O)c(C)cc(c3C1=O)C2=O)C(=O)O (configuration not stated) |  |  |  |  |  |  |  | > 100 | TGI (MDA-N): > 100 µM |
| Nc1ccc(COC(O)CN2CCCCC2)cc1[N+](=O)[O-] (configuration not stated) |  |  |  |  |  |  |  | > 100 | TGI (MDA-N): > 100 µM |
| O=C(Nc1ccccc1-c1nn(CN2CCNCC2)c(=S)n(CN2CCNCC2)c1=O)C(F)(F)F |  | 34 | 62.4 | 32.1 | 33.3 | 63.9 |  |  | TGI (RXF-631 renal): 46.8 µM |
| Cc1ccc(S(=O)(=O)c2ccc(C)cc2[N+](=O)[O-])cc1 |  | 73.3 | > 100 | > 100 | > 100 | > 100 |  |  |  |
| C=C1SC(=Nc2ccccc2Cl)N(C(=O)c2sc3ccccc3c2Cl)C12CCCCC2 |  |  |  |  |  |  | 3.95 µM | > 100 |  |
| Cc1[nH]c(N)nc(=S)c1CCC(=O)O |  |  |  |  |  |  |  | > 100 | TGI (MDA-N): > 100 µM |
| CCOC(=O)C12C(C(=O)OC)=C(C)N(NC(=O)Nc3ccccc3)C1(N)N(NC(=O)Nc1ccccc1)C(C)=C2C(=O)OC (configuration not stated) | 59.1 | 83.6 | > 100 | 33.2 | > 100 | > 86 |  |  |  |
| C[n+]1c2ccccc2nc2ccccc21 |  |  |  |  |  |  | 0.353 µM | 1.59 |  |
| Nc1nc2cc(CC[C@H]3C[C@@H](n4ccc5c(N)ncnc54)[C@H](O)[C@@H]3O)ccc2cc1Br |  |  |  |  |  |  | 1.82 µM | 19.1 |  |
| CC(=O)OC12c3ccccc3-c3ccccc3C1C(C(=O)O)C2C(=O)O (configuration not stated) |  |  |  |  |  |  |  | > 10 |  |
| CCCCCCCC(=O)SCC/C=C/[C@@H]1CC(=O)NCc2nc(cs2)C2=N[C@@](C)(CS2)C(=O)N[C@@H](C(C)C)C(=O)N1 |  |  |  |  |  |  | 0.0198 µM | > 100 |  |
| CCCN(CCC)C(=O)c1nc(N)nc(-c2ccc(OC)cc2)c1-c1ccc(OC)cc1 | > 100 | > 100 | > 100 |  | > 100 | > 100 |  |  | TGI (RXF-631 renal): > 100 µM |
| C/C(CC(=O)Nc1ccccc1C)=N/NS(=O)(=O)c1ccc(C)cc1 | > 100 |  | > 100 | > 100 | > 100 |  |  |  | TGI (RXF-631 renal): > 100 µM |
| COC1CCC(OC)C(C2(C3CC(OC)CCC3OC)OC(=O)c3ccccc32)C1 (configuration not stated) | > 100 | > 100 | > 100 |  | > 100 | > 100 |  |  | TGI (RXF-631 renal): > 100 µM |
| COc1cc2c(cc1OC)C1Cc3ccc(OC)c(OC)c3C[N+]1([O-])CC2 (configuration not stated) | > 100 |  | > 100 |  | > 100 |  |  |  |  |
| COC(=O)C(CC(=O)Nc1ccc(Cl)c(Cl)c1)C(=O)C(=O)Nc1ccc(Cl)c(Cl)c1 (configuration not stated) |  | > 100 | > 100 | > 100 |  | > 100 |  |  | TGI (RXF-631 renal): > 100 µM |
| NC(=O)c1cccc(OCC(O)CO)c1 (configuration not stated) |  |  |  |  |  |  |  | > 100 | TGI (MDA-N): > 100 µM |
